# Experimental data as given in patent US20160128988A1, “COMBINATIONS FOR THE TREATMENT OF CANCER COMPRISING A MPS-1 KINASE INHIBITOR AND A MITOTIC INHIBITOR” (BAYER PHARMA AKTIENGESELLSCHAFT, priority 2013, published 2016).
# Key:
# [1] = system: NCI-H1299 human NSCLC xenograft tumors
# Experimental: The effect of combination treatment of an Mps-1 inhibitor and paclitaxel was studied in the NCI-H1299 taxane intrinsically resistant human lung carcinoma (NSCLC) xenograft model in nude mice.
# Paclitaxel was applied intravenously once per week upon its respective MTD. Substances were formulated in optimal vehicles to achieve solutions. Animal body weight and tumor size were determined two to three times weekly. […] For combination treatment, the Compound A1 and paclitaxel were applied at the same day within a time frame of 4 hours. Animals of control and monotherapy group (Compound A1 only) were treated for a duration of 28 days. Animals of paclitaxel monotherapy and paclitaxel/Mps-1 inhibitor treatment groups were treated for a duration of 37 days. At the end of the study after one final treatment plasma and tumors were sampled for PK analysis and final tumor weight was determined.
# FIGS. 1A and 1B show the response of NCI-H1299 human NSCLC xenograft tumors to treatment with Compound A1 in combination with paclitaxel. NCI-H1299 human NSCLC tumor cells were implanted s.c. into nude mice on day 0. […] Compound A1 was administered orally (p.o.) upon 0.45 mg/kg twice daily (2QD) for 2 days on/5 days off (2 on/5 off) in monotherapy and in combination with paclitaxel. Paclitaxel was administered intravenously (i.v.) upon 20 mg/kg once daily (QD) once per week (1 on/6 off) in monotherapy and combination therapy. Tumor growth was monitored by determination of the tumor area using calliper measurement two to three times weekly. FIG. 1A: Time course of tumor growth. FIG. 1B: Time course of animal body weight change during the course of the study.
# [2] = system: human glioblastoma model U87 MG; assay: Combination with vincristine in human glioblastoma model U87 MG (intracerebral); format: in vivo, nude mice
# Experimental: The study was designed to determine the response of this glioblastoma model to the treatment with the investigational Compound A1 and vincristine, both alone at a fixed dose, and vincristine in combination with two different doses, both lower than that of Compound A1 used in the monotherapy schedule. The size of the glioblastoma was used as read out parameter for response.
# The cell culture derived human xenograft U87 MG was initiated by transplantation of the tumor cells into the left hemisphere of the mouse brain. Treatment was done in three cycles between day 3 and day 19. Mice were sacrificed at day 24, the brain isolated and shock frozen in 2 methyl-butane. Tumor size were determined as measure for tumor growth inhibition from cryo-slizes after staining.
# [3] = system: A2780 human ovarian carcinoma model; format: in vivo; conditions: Compound A1 single agent 1 mg/kg and 2.5 mg/kg (8 days); triple combination (17 treatment days)
# Experimental: Cisplatin and paclitaxel were administered in combination at their respective MTD, cisplatin intraperitoneally (IP) every second week (Q2W) and paclitaxel IV QW.
# [4] = Compound A1 0.45 mg/kg 2QD 2on/5off p.o., paclitaxel 20 mg/kg QD 1on/6off i.v.
# [5] = day 24, single agents: Gr. B Compound A1 2.5 mg/kg p.o., Gr. C Vincristine 0.75 mg/kg i.p.
smiles,measurement,setting,value
COc1cc(S(C)(=O)=O)ccc1Nc1nc2ccc(-c3ccc(NC(=O)[C@H](C)c4ccc(F)cc4)cc3)cn2n1 [Compound A1],Fatal Tox,[1]; [4],0/10
same,Max. Body weight loss (%),[1]; [4],−1%
same,anti-tumor efficacy (in words),"[1]; Compound A1 0.45 mg/kg 2QD p.o. (28 treatment days), combination with paclitaxel 20 mg/kg i.v. (37 treatment days)",no effect on tumor growth
same,T/C weight,"[1]; mean final tumor weight, Compound A1 0.45 mg/kg 2QD 2on/5off p.o.",1.34
same,T/C area,"[1]; relative mean tumor area, 28 treatment days, Compound A1 0.45 mg/kg 2QD 2on/5off p.o., paclitaxel 20 mg/kg QD 1on/6off i.v.",1.27
same,tumor growth inhibition (in words),"[2]; Compound A1 single drug 2.5 mg/kg, combination with vincristine",no inhibitory effect
same,"BWC [%] (at day), nadir of body weight",[2]; Gr. B: Compound A1 2.5 mg/kg p.o. BIDx2x3,−7.7 (d24) %
same,Brain tumor inside [mm^2],"[2]; day 24, single agents: Gr. B Compound A1 2.5 mg/kg p.o. BIDx2x3, Gr. C Vincristine 0.75 mg/kg i.p. 1xqWx3",15.89 +/− 9.93 mm^2
same,Brain tumor outside [mm^2],[2]; [5],5.50 +/− 4.09 mm^2
same,Brain tumor total [mm^2],[2]; [5],20.64 +/− 12.14 mm^2
same,T/C (inside T) [%],[2]; [5],91.3%
same,anti-tumor efficacy (in words),[3],weak single-agent efficacy
